Test results as given in publication PMC6269819, “Evaluation of the Biological Activity of Naturally Occurring 5,8-Dihydroxycoumarin” (Molecules, 2013).
Marks after values point to notes of the source that are not given here.

Legend:
[1] = DPPH• radical scavenging assay; conditions: 16 min reaction
Procedure: Radical scavenging activity of extracts against stable DPPH^• (2,2-diphenyl-[…] hydrate, Sigma-Aldrich Chemie, Steinheim, Germany) was determined spectrophotometrically by using slightly modified method of Brand-Williams et al. (1995). 5,8-DHC was dissolved in methanol at 0.0025, 0.005, 0.010 and 0.025% concentrations before reaction. A 2 mL aliquot of DPPH^• solution in methanol (6 × 10^−5 M) was mixed with a 50 μL of 5,8-DHC solution in 1 cm path length quartz cuvette. The decreasing absorbance at 515 nm was recorded on a UV spectrophotometer Spectronic Genesys 8 (Spectronic Instruments, Rochester, NY, USA) during 16 min reaction time at 1 min intervals until the absorbance curve reached the plateau. The same amount of methanol and DPPH^• solution was used as a blank. The experiments were carried out in triplicate.

human lymphocytes = test: Sister chromatid exchanges and replication index in human lymphocyte cultures in vitro; assay type: cell-based
Procedure: Blood samples were taken from two healthy female volunteers (donor A) and (donor B). Whole peripheral blood was grown in HEPES-buffered RPMI 1640 medium supplemented with 12% heat-inactivated newborn calf serum, 7.8 μg/mL phytohemagglutinin P, 50 μg/mL gentamycin, 10 μg/mL 5-bromo-2'-deoxyuridine. All reagents used for the cell culture were purchased from Sigma-Aldrich Chemical Co. (St. Louis, MO, USA). Cell cultures were incubated at 37 °C for 72 h. Treatment with test compounds was carried out 48 h after culture initiation and lasted for the period of 24 h. Dose range of 5,8-DHC (10 to 40 µg/mL) was based on pilot experiments (data not shown). As whole blood cultures display many properties common with the liver microsomal cytochrome P450 system, no external metabolising enzymes were added. 5,8-DHC was dissolved in ethanol and then diluted with RPMI 1640 medium to the desired concentration. Ethanol in a final concentration of 7.5µL/mL was used as a solvent control. […] Working solutions were made just before treatment. Two parallel cultures were used for each concentration of the compound tested. Two cultures were left untreated and served as a blank control. Methyl methanesulfonate (MMS) in a final concentration of 0.02 μL/mL was used as a positive control. The cultures were exposed to colchicine at a final concentration of 0.6 μg/mL for the last 3 h of incubation. The cells were harvested, hypotonically swollen in 0.075 M KCl and fixed in methanol: acetic acid (3:1). Air-dried slides were differentially stained by fluorescence plus Giemsa technique as has been described previously. Briefly, the slides were stained for 10 min. with 10 μg/mL of Hoechst 33258 dye (dissolved in 0.07 M Soerensen’s buffer, pH 6.8). Then the slides were rinsed, mounted with citrate buffer (pH 8.5), covered with cover slips and exposed to UV light (400 W mercury lamp at a distance of 15 cm) for 6–7 min. Slides were then rinsed and stained for 3–4 min. with 5% Giemsa. Cytogenetic analysis was performed on coded slides. No less than 100 first-mitotic division metaphases per culture were analysed for CAs, and no less than 50 second-division metaphases for SCEs.
Cell replicative kinetics were determined by means of a replicative index (RI = [M1 + 2M2 + 3M3]/N, where M1, M2, M3 are the numbers of cells that had undergone one, two or three cycles of replication, and N is a total number of cells scored). 300 cells were scored to determine RI

## O=c1ccc2c(O)ccc(O)c2o1 [5,8-DHC, 5,8-Dihydroxycoumarin]
[1]
  IC50 in DPPH• assay: 0.0185%
Human lymphocytes
  ratio of regression coefficients donor A / donor B: 2.6 times
Human lymphocytes; Donor A, 10 µg/mL
  RI ± S.E.M: 2.70 ± 0.04
  SCE/ cell ± S.E.M.: 10.2 ± 0.5 SCE/cell
Human lymphocytes; Donor A, 15 µg/mL
  RI ± S.E.M: 2.74 ± 0.31
  SCE/ cell ± S.E.M.: 12.3 ± 0.6 ^b SCE/cell
Human lymphocytes; Donor A, 20 µg/mL
  RI ± S.E.M: 2.65 ± 0.04 ^b
  SCE/ cell ± S.E.M.: 12.7 ± 0.7 ^b SCE/cell
Human lymphocytes; Donor A, 25 µg/mL
  RI ± S.E.M: 2.66 ± 0.04 ^b
  SCE/ cell ± S.E.M.: 13.6 ± 0.6 ^b SCE/cell
Human lymphocytes; Donor A, 30 µg/mL
  RI ± S.E.M: 2.55 ± 0.05 ^b
  SCE/ cell ± S.E.M.: 13.9 ± 0.6 ^b SCE/cell
Human lymphocytes; Donor A, 35 µg/mL
  RI ± S.E.M: 2.51 ± 0.05 ^b
  SCE/ cell ± S.E.M.: 15.0 ± 0.8 ^b SCE/cell
Human lymphocytes; Donor A, 40 µg/mL
  RI ± S.E.M: 2.62 ± 0.04 ^b
  SCE/ cell ± S.E.M.: 19.7 ± 1.5 ^b SCE/cell
Human lymphocytes; Donor B, 10 µg/mL
  RI ± S.E.M: 2.22 ± 0.05 ^b
  SCE/ cell ± S.E.M.: 10.1 ± 0.5 SCE/cell
Human lymphocytes; Donor B, 15 µg/mL
  RI ± S.E.M: 2.35 ± 0.05
  SCE/ cell ± S.E.M.: 10.6 ± 0.5 SCE/cell
Human lymphocytes; Donor B, 20 µg/mL
  RI ± S.E.M: 2.49 ± 0.05
  SCE/ cell ± S.E.M.: 10.3 ± 0.4 SCE/cell
Human lymphocytes; Donor B, 25 µg/mL
  RI ± S.E.M: 2.31 ± 0.05 ^b
  SCE/ cell ± S.E.M.: 9.9 ± 0.5 SCE/cell
Human lymphocytes; Donor B, 30 µg/mL
  RI ± S.E.M: 2.31 ± 0.06 ^b
  SCE/ cell ± S.E.M.: 11.8 ± 0.5 ^b SCE/cell
Human lymphocytes; Donor B, 35 µg/mL
  RI ± S.E.M: 2.17 ± 0.06 ^b
  SCE/ cell ± S.E.M.: 11.5 ± 0.6 ^b SCE/cell
Human lymphocytes; Donor B, 40 µg/mL
  RI ± S.E.M: 2.07 ± 0.06 ^b
  SCE/ cell ± S.E.M.: 13.3 ± 0.6 ^b SCE/cell
Human lymphocytes; donor A
  dose giving statistically significant increase in the frequency of SCEs: 15 µg/mL
  regression coefficient of SCE dose-response relationship: 1.15
Human lymphocytes; donor B
  dose giving statistically significant increase in the frequency of SCEs: ≥ 30 µg/mL
  regression coefficient of SCE dose-response relationship: 0.44
Human lymphocytes; lymphocytes of both donors
  concentration consistently inhibiting cell replicative kinetics: higher than 25 μg/mL
